Test results from US11685716B2, “Plant growth inhibiting agent, and plant growth inhibiting method using same” (NATIONAL UNIVERSITY CORPORATION KUMAMOTO UNIVERSITY, priority 2017, dated 2023).

How the values were obtained:
[1] = system: velvet leaf; assay: Seed treatment, plant growth inhibition index (Evaluation 11); format: in vivo; design: key: 0: No effect; 1: Growth of the root part was inhibited 50% or less compared with non-treated area.; 2: Growth of the root part was inhibited 50% or more compared with non-treated area.; 3: Growth of the root part was substantially inhibited.; 4: Germination was inhibited
Protocol: (§1) The compound of the present invention (2 mg) was dissolved in a 1.5% Tween dimethylformamide solution (100 μL) to use as a test chemical solution.
(§2) Eight mL of sterilized water was poured to a cherry cup (100Φ×45 mm) lined with a filter paper, subsequently 81.1 μL of the sterilized water was removed, and 81.1 μL of the test chemical solution was added such that a final concentration of the compound was 800 μM.
(§3) Further, cherry cups were similarly prepared such that a final concentration of the compound was 200 μM.
(§4) Seeds (Japanese millet: 3 grains, velvet leaf: 6 grains, Ragweed: 8 grains, morning glory: 2 grains) were planted on the filter paper in the cherry cups, followed by growing the plants in a thermostatic chamber at 25° C. under a light-dark cycle in which a light period is 12 hours and a dark period is 12 hours for 6 days.
(§5) In addition, with regards to the compound (9a) and the compound (9b), the plants were tested for 7 days.
(§6) Plant growth inhibition effects of the compounds were evaluated by conversion to indexes according to the following investigation criteria.

[2] = system: Ragweed; assay: as above; format: in vivo; design: key: 0: No effect; 1: Growth of the root part was inhibited 50% or less compared with non-treated area.; 2: Growth of the root part was inhibited 50% or more compared with non-treated area.; 3: Growth of the root part was substantially inhibited.; 4: Germination was inhibited
Protocol: as §1, §2, §3, §4, §5, §6

[3] = system: morning glory; assay: as above; format: in vivo; design: key: 0: No effect; 1: Growth of the root part was inhibited 50% or less compared with non-treated area.; 2: Growth of the root part was inhibited 50% or more compared with non-treated area.; 3: Growth of the root part was substantially inhibited.; 4: Germination was inhibited
Protocol: as §1, §2, §3, §4, §5, §6

[4] = system: Japanese millet; assay: as above; format: in vivo; design: key: 0: No effect; 1: Growth of the root part was inhibited 50% or less compared with non-treated area.; 2: Growth of the root part was inhibited 50% or more compared with non-treated area.; 3: Growth of the root part was substantially inhibited.; 4: Germination was inhibited
Protocol: as §1, §2, §3, §4, §5, §6

[5] = system: Japanese bristlegrass; assay: Spray treatment to stems and leaves, killing weed index (Evaluation 10); format: in vivo; conditions: 2000 g active ingredient per hectare, two weeks later
Protocol: (§7) POA allyl phenyl ether (4.1 parts by weight), POE-POP glycol (1 part by weight), POE sorbitan laurate (0.8 parts by weight), glycerin (2.6 parts by weight), dimethylformamide (65.9 parts by weight), N-methylpyrrolidone (5.1 parts by weight), cyclohexanone (15.4 parts by weight), and aromatic hydrocarbon (5.1 parts by weight) were mixed and dissolved to prepare an emulsion. The compounds of the present invention (4 mg) were dissolved in this emulsion (100 μL) to prepare a test emulsion. In addition, POA means “polyoxyalkylene”, POE means “polyoxyethylene”, and POP means “polyoxypropylene.”
(§8) Four hundred μL of the above test emulsion was diluted with 7600 μL of water to use as a test spray liquid.
(§9) Further, 400 μL of the above test emulsion was diluted with 1600 μL of a 1% Tween20 aqueous solution to use as a spray liquid for a small amount spray test.
(§10) For a comparative spray liquid, 53 μL of a 30% pendimethalin emulsion (Gogosan emulsion: manufactured by BASF Japan) as a control pesticides was diluted with 7947 μL of water. Further, for a comparative spray liquid for a small amount spray test, 53 μL of the 30% pendimethalin emulsion was diluted with 1947 μL of water.
(§11) A 150 cm^2 pot was filled with a soil, seeds of each purple amaranth, Japanese bristlegrass, southern crabgrass, and velvet leaf were sown on the surface layer, lightly covered with a soil and grown in a greenhouse. When each plant grew to a plant height of 2 to 9 cm, the test spray liquid was sprayed to the stem and leaf parts with a small spraying machine such that an active ingredient amount was 2000 g per hectare and a sprayed liquid amount was 1000 L per hectare.
(§12) Similarly, the test spray liquid for a small amount spray test was sprayed to the stem and leaf parts with a small spraying machine such that an active ingredient amount was 2000 g per hectare and a sprayed liquid amount was 250 L per hectare.
(§13) Two weeks later, the above-ground grass weight in non-treated areas and the above-ground grass weight in treated areas, by the weed, were measured to calculate a killing weed rate by the following calculating formula.
(§14) (a) Calculating Formula of Weeding Rate Killing weed rate (%)=(above-ground grass weight in non-treated area−above-ground grass weight in treated area)/(above-ground grass weight in non-treated area)×100 (b) Killing Weed Indexes
(§15) The obtained killing weed rates were evaluated, such that a killing weed index was “10” when a killing weed rate is 100%, as “9” when a killing weed rate is 99% to 90%, “8” when a killing weed rate is 89% to 80%, “7” when a killing weed rate is 79% to 70%, “6” when a killing weed rate is 69% to 60%, “5” when a killing weed rate is 59% to 50%, “4” when a killing weed rate is 49% to 40%, “3” when a killing weed rate is 39% to 30%, “2” when a killing weed rate is 29% to 20%, “1” when a killing weed rate is 19% to 10%, and “0” when a killing weed rate is 9% to 0%.

[6] = system: velvet leaf; assay: as above; format: in vivo; conditions: 2000 g active ingredient per hectare, two weeks later
Protocol: as §7, §8, §9, §10, §11, §12, §13, §14, §15

[7] = system: southern crabgrass; assay: as above; format: in vivo; conditions: 2000 g active ingredient per hectare, two weeks later
Protocol: as §7, §8, §9, §10, §11, §12, §13, §14, §15

[8] = system: purple amaranth; assay: as above; format: in vivo; conditions: 2000 g active ingredient per hectare, two weeks later
Protocol: as §7, §8, §9, §10, §11, §12, §13, §14, §15

[9] = system: thale cress; assay: Plant growth inhibition index, thale cress on agar medium in test tube (Evaluation 8, 9); format: in vivo, thale cress (Col-0, wild-type strain); design: key: 0: No effect; 1: Growth of the root part was inhibited 50% or less compared with non-treated area.; 2: Growth of the root part was inhibited 50% or more compared with non-treated area.; 3: Growth of the root part was substantially inhibited.; 4: Germination was inhibited; conditions: for Index: Concentration 200 μM, 8 days (Evaluation 9, Table 2)
Protocol: 0.44% (w/v) Mixed salts for Murashige and Skoog medium (SIGMA), 1% (w/v) sucrose, and 0.05% (w/v) MES were mixed, and pH of the solution was adjusted to pH 5.7 with potassium hydroxide. 1.5% (w/v) Agar was added to the mixture, which was sterilized at 120° C. in an autoclave for 20 minutes. The test compound and dimethylformamide containing 1.5% of polyoxyethylenesorbitan monolaurate for a control experiment, were added at this stage and blended. In addition, the compound was used by adjusting an addition concentration to 200 μM. Four ml each of the medium was dispensed in sterile glass test tube ([…] RIKA GLASS CO., LTD.) to prepare agar medium.
As a plant material, Col-0, which is a wild-type strain of thale cress, was used.
Seeds, after their surfaces were sterilized, were planted on the agar medium, and the growth of the plant was carried out in a plant incubator (CFH-405) under the conditions of an illuminance of 3 at 23° C. with constant light. The plants on the agar medium were grown for 8 days in the chamber.
The plant growth inhibition effect of the compounds was evaluated by conversion to indexes according to the following investigation criteria.

[10] = 200 μM, 6 days (9a, 9b: 7 days)
[11] = sprayed liquid amount 1000 L/ha

CCCCCCCCCOn1cccc1C(=O)NC [Compound 9d]
plant growth inhibition index, Velvet leaf [1, 10]: 0 | plant growth inhibition index, Ragweed [2, 10]: 3 (Growth of the stem and leave parts was inhibited 30% or more compared with non-treated area, or growth of the only root part was inhibited 60% or more compared with non-treated area.) | plant growth inhibition index, Morning glory [3, 10]: 0 | plant growth inhibition index, Japanese millet [4, 10]: 3 (Growth of the stem and leave parts was inhibited 30% or more compared with non-treated area, or growth of the only root part was inhibited 60% or more compared with non-treated area.) | killing weed index, Japanese bristlegrass ([5]; sprayed liquid amount 250 L/ha): 2 (“2” when a killing weed rate is 29% to 20%) | killing weed index, Japanese bristlegrass [5, 11]: 1 (“1” when a killing weed rate is 19% to 10%) | killing weed index, Velvet leaf ([6]; sprayed liquid amount 250 L/ha): 3 (“3” when a killing weed rate is 39% to 30%) | killing weed index, Velvet leaf [6, 11]: 0 (“0” when a killing weed rate is 9% to 0%) | killing weed index, Southern crabgrass ([7]; sprayed liquid amount 250 L/ha): 3 (“3” when a killing weed rate is 39% to 30%) | killing weed index, Southern crabgrass [7, 11]: 2 (“2” when a killing weed rate is 29% to 20%) | killing weed index, Purple amaranth ([8]; sprayed liquid amount 250 L/ha): 0 (“0” when a killing weed rate is 9% to 0%) | killing weed index, Purple amaranth [8, 11]: 0 (“0” when a killing weed rate is 9% to 0%) | Index [9]: 3

CCCCCCCCCOn1cc(Cl)cc1C(=O)O [Compound 9b]
plant growth inhibition index, Velvet leaf [1, 10]: 0 | plant growth inhibition index, Ragweed [2, 10]: 0 | plant growth inhibition index, Morning glory [3, 10]: 3 (Growth of the stem and leave parts was inhibited 30% or more compared with non-treated area, or growth of the only root part was inhibited 60% or more compared with non-treated area.) | plant growth inhibition index, Japanese millet [4, 10]: 0 | killing weed index, Japanese bristlegrass ([5]; sprayed liquid amount 250 L/ha): 3 (“3” when a killing weed rate is 39% to 30%) | killing weed index, Velvet leaf ([6]; sprayed liquid amount 250 L/ha): 2 (“2” when a killing weed rate is 29% to 20%) | killing weed index, Southern crabgrass ([7]; sprayed liquid amount 250 L/ha): 2 (“2” when a killing weed rate is 29% to 20%) | killing weed index, Purple amaranth ([8]; sprayed liquid amount 250 L/ha): 10 (“10” when a killing weed rate is 100%) | Index [9]: 3

O=C(O)c1cccn1OCCCC(F)(F)F [Compound 8i]
killing weed index, Japanese bristlegrass ([5]; sprayed liquid amount 250 L/ha): 1 (“1” when a killing weed rate is 19% to 10%) | killing weed index, Japanese bristlegrass [5, 11]: 3 (“3” when a killing weed rate is 39% to 30%) | killing weed index, Velvet leaf ([6]; sprayed liquid amount 250 L/ha): 0 (“0” when a killing weed rate is 9% to 0%) | killing weed index, Velvet leaf [6, 11]: 0 (“0” when a killing weed rate is 9% to 0%) | killing weed index, Southern crabgrass ([7]; sprayed liquid amount 250 L/ha): 2 (“2” when a killing weed rate is 29% to 20%) | killing weed index, Southern crabgrass [7, 11]: 2 (“2” when a killing weed rate is 29% to 20%) | killing weed index, Purple amaranth ([8]; sprayed liquid amount 250 L/ha): 0 (“0” when a killing weed rate is 9% to 0%) | killing weed index, Purple amaranth [8, 11]: 0 (“0” when a killing weed rate is 9% to 0%) | index on the plant growth inhibition effect ([9]; 200 μM, 8 days (Evaluation 8)): 2 (Growth of the root part was inhibited 50% or more compared with non-treated area.)

CCCCCCCCCOn1cc(C)cc1C(=O)O [Compound 9c]
killing weed index, Japanese bristlegrass ([5]; sprayed liquid amount 250 L/ha): 2 (“2” when a killing weed rate is 29% to 20%) | killing weed index, Japanese bristlegrass [5, 11]: 3 (“3” when a killing weed rate is 39% to 30%) | killing weed index, Velvet leaf ([6]; sprayed liquid amount 250 L/ha): 5 (“5” when a killing weed rate is 59% to 50%) | killing weed index, Velvet leaf [6, 11]: 0 (“0” when a killing weed rate is 9% to 0%) | killing weed index, Southern crabgrass ([7]; sprayed liquid amount 250 L/ha): 3 (“3” when a killing weed rate is 39% to 30%) | killing weed index, Southern crabgrass [7, 11]: 5 (“5” when a killing weed rate is 59% to 50%) | killing weed index, Purple amaranth ([8]; sprayed liquid amount 250 L/ha): 1 (“1” when a killing weed rate is 19% to 10%) | killing weed index, Purple amaranth [8, 11]: 0 (“0” when a killing weed rate is 9% to 0%) | Index [9]: 3

CCCCCOn1cc(-c2ccsc2)cc1C(=O)O [Compound 9j]
plant growth inhibition index, Velvet leaf [1, 10]: 0 | plant growth inhibition index, Velvet leaf ([1]; 800 μM, 6 days): 5 (Growth of the stem and leave parts was inhibited 50% or more compared with non-treated area, or growth of the only root part was inhibited 100% or more compared with non-treated area.) | plant growth inhibition index, Ragweed [2, 10]: 8 (Growth of the stem and leave parts was inhibited 80% or more compared with non-treated area.) | plant growth inhibition index, Ragweed ([2]; 800 μM, 6 days): 9 (Growth of the stem and leave parts was inhibited 90% or more compared with non-treated area.) | plant growth inhibition index, Morning glory [3, 10]: 3 (Growth of the stem and leave parts was inhibited 30% or more compared with non-treated area, or growth of the only root part was inhibited 60% or more compared with non-treated area.) | plant growth inhibition index, Morning glory ([3]; 800 μM, 6 days): 5 (Growth of the stem and leave parts was inhibited 50% or more compared with non-treated area, or growth of the only root part was inhibited 100% or more compared with non-treated area.) | plant growth inhibition index, Japanese millet [4, 10]: 4 (Growth of the stem and leave parts was inhibited 40% or more compared with non-treated area, or growth of the only root part was inhibited 80% or more compared with non-treated area.) | plant growth inhibition index, Japanese millet ([4]; 800 μM, 6 days): 3 (Growth of the stem and leave parts was inhibited 30% or more compared with non-treated area, or growth of the only root part was inhibited 60% or more compared with non-treated area.) | Index [9]: 2 (Growth of the root part was inhibited 50% or more compared with non-treated area.)
